Experimental data taken from patent EP0535336A2, “MK protein as cell growth inhibitor” (AMERICAN CYANAMID COMPANY, priority 1991, dated 1993).

Tests used:
mouse EC cell line, HM-1 = details: retinoic acid induction; cited from earlier work
[1] = system: human embryonal carcinoma (EC) cell line NT2/D1; assay: Retinoic acid induction of NT2/D1 cells (differentiation, northern analysis); format: cell-based; details: nine days of RA, 0.01 to 10 µM, normalized to β-actin probe
Method: The human embryonal carcinoma (EC) cell line NT2/D1 can be induced to differentiate at concentrations of retinoic acid (RA) varying from 0.01 to 10 µM, with the proportion of differentiating EC cells ranging from 50% at […] RA to greater than 99% at […] RA. The expression of MK and HBNF during differentiation of NT2/D1 is studied, at concentrations ranging from 0.01 to 10 µM. After nine days of exposure to RA, total RNA was extracted from cells and probed for gene expression by northern analysis. Expression of both gene follows a similar pattern. Levels of mRNA expression remain at a steady background level. When RNA hybridization signals are normalized to a control β-actin probe, the maximum increases are calculated to be 6-fold for HBNF and 11-fold for MK. […] In this cell line, MK gene expression is induced 8-10 fold above background.
The human embryonal carcinoma cell line Nt2/D1 is grown. For retinoic acid induction, cells are grown and resuspended in DMEM medium containing 10% bovine calf serum and resuspended in DMEM medium containing 10% bovine calf serum (Hyclone Laboratories, Inc.) at a density of 5 x 10⁵ cells per 100 mm dish. Varying concentrations of all-trans retinoic acid in dimethyl sulfoxide (10 µl) is added and cells are incubated for 9 days. Fresh medium and RA are added at days 4 and 8. […]

## CC1=C(/C=C/C(C)=C/C=C/C(C)=C/C(=O)O)C(C)(C)CCC1 [RA, all-trans retinoic acid]
Mouse EC cell line, HM-1
  MK gene expression induced above background: 8-10 fold
[1]
  maximum increase of HBNF mRNA expression: 6 fold
  maximum increase of MK mRNA expression: 11 fold
